The text below walks through data of paper PMC10643123, “Integrated chemical and genetic screens unveil FSP1 mechanisms of ferroptosis regulation” (Nature Structural & Molecular Biology, 2023).

One assay deals with T1, hFSP1 (human FSP1) (Homo sapiens, UniProt Q9BRQ8).
T1 construct: gene AIFM2; recombinant from E. coli BL21, Ni-NTA purified (His tag implied); HA-tagged in Pfa1 cells for cell assays; cDNA carries C>T:1008 (probably silent)
T1 sequence (Q9BRQ8 2-373): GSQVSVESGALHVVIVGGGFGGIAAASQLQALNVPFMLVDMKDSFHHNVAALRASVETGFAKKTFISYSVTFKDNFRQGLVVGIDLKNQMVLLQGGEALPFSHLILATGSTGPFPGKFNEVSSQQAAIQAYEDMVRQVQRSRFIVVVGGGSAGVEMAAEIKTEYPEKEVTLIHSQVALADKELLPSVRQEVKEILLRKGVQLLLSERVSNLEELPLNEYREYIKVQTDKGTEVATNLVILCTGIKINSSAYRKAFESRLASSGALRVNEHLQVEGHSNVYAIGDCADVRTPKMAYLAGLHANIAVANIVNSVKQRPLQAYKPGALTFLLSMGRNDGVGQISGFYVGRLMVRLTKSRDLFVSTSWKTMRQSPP
Description: resazurin reduction, fluorescence. Format: biochemical. On the technique in general: The colour change of resazurin is a common sign of viable cells or microbes.

The next assay has as its target T2, mFsp1 (mouse FSP1) (Mus musculus, UniProt Q8BUE4).
T2 construct: gene Aifm2; recombinant from E. coli BL21, Ni-NTA purified; HA-tagged, codon-optimized in Pfa1 cells for cell assays
T2 sequence (Q8BUE4 2-373): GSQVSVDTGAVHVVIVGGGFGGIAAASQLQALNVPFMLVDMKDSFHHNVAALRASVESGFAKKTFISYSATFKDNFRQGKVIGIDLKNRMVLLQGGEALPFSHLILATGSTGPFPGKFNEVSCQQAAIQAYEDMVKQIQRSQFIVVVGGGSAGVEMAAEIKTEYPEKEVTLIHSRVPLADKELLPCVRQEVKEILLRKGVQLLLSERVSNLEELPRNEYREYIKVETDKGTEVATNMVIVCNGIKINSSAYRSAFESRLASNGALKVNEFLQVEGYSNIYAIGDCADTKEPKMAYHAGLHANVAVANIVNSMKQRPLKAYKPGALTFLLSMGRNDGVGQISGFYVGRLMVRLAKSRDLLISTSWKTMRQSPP
Description: resazurin reduction, fluorescence. The assay is classed as biochemical. The text has this: resazurin reduction, fluorescence on mFsp1 (mouse FSP1) | both hFSP1 and mFsp1 enzyme activity are equally sensitive to viFSP1

Where two headings read alike, the source gives them in different places.

One may read the IC50 as the concentration at which inhibition is half-maximal. On to `COc1ccc(N2CC(=O)C(c3nc(C)cs3)=C2N)c(OC)c1` [viFSP1], for which the IC50 on hFSP1 (human FSP1) (read-out: IC50) is 34 nM; against mFsp1 (mouse FSP1) it was 83 nM. For the molecule `Cc1ccc(-c2c(C#N)c(N)n3c(nc4ccccc43)c2C#N)cc1` [iFSP1], the IC50 entry at hFSP1 (human FSP1) ([…] NADH, […] resazurin, TBS, […] C) is reported as “dose–response curves for the effect of iFSP1 on the activity of FSP1 mutants”.
